Test results taken from patent US20240247080A1, “GLP1/GIP/NPY2 RECEPTOR TRIPLE AGONISTS” (Boehringer Ingelheim International GmbH, priority 2022, published 2024).
Read-outs that look alike come from different tables or passages of the source. Starred links: 1 amine or outer side, 2 acyl side, 3 side chain; linkers in the order of their positions; H or OH if unused. Non-standard residues stand in square brackets, D forms with d. Groups on a side chain read outwards from the residue. *: point of attachment. C20 diacid = O=C(O)CCCCCCCCCCCCCCCCCCC(=O)*; C18 diacid = O=C(O)CCCCCCCCCCCCCCCCC(=O)*; γGlu = O=C(O)[C@H](CCC(=O)[*:2])N[*:1]; εLys = N[C@@H](CCCCN[*:1])C(=O)[*:2]; NMeR = CN[C@@H](CCCNC(=N)N)C(=O)O; β3hQ = NC(=O)CC[C@H](N)CC(=O)O; Aib = CC(C)(N)C(=O)O

What was measured:
Type in all cases: cell-based
Details in all cases: CreLuc reporter gene assay
hGLP1R = target: T1, hGLP1R (Homo sapiens, UniProt P43220); assay: hGLP1R CreLuc reporter gene assay in 0.5% and 100% plasma
T1 construct: expressed in transfected cells; host or cells: HEK-293 cells carrying a CRE-luciferase reporter gene
T1 sequence (P43220 24-463): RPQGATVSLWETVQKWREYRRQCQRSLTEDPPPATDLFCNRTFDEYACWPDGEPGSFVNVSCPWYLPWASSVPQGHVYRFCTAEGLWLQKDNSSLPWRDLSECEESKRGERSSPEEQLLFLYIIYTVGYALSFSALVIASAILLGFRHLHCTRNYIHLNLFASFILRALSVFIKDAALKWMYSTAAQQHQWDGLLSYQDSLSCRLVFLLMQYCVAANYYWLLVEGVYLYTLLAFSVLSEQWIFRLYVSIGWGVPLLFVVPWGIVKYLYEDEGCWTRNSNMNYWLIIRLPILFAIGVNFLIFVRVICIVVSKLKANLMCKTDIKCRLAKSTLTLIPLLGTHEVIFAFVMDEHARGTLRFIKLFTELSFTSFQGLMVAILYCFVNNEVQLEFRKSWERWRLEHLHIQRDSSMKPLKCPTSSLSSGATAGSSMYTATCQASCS
Procedure, shortened: (§1)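 HEK-293 cells co-expressing GLP-1 or NPY2 receptor and CHO cells expressing GIP receptor, each carrying a CRE-driven luciferase reporter, were stimulated with peptides for 4 hours at 37 °C. Luminescence was read after Bright-Glo addition. EC50 came from 8-point, four-decade curves fitted by variable-slope non-linear regression.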

hNPY2R = target: T2, hNPY2R (Homo sapiens, UniProt P49146); assay: hNPY2R CreLuc reporter gene assay in 0.5% and 100% plasma
T2 construct: expressed in transfected cells; host or cells: HEK-293 cells carrying a CRE-luciferase reporter gene
T2 sequence (P49146 1-381): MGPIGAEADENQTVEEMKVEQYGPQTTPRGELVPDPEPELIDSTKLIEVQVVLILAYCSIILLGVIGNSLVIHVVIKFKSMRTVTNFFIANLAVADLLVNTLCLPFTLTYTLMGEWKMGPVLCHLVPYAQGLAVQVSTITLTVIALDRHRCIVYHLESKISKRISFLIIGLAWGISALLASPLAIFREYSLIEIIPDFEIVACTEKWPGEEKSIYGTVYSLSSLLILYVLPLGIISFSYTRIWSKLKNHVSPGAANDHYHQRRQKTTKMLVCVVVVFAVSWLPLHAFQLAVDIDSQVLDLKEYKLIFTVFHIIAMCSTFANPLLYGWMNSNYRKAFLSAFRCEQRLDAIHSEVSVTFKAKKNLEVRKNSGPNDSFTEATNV
Procedure, shortened: as §1

hGIPR = target: T3, hGIPR (Homo sapiens, UniProt P48546); assay: hGIPR CreLuc reporter gene assay in 0.5% and 100% plasma
T3 construct: expressed in transfected cells; host or cells: CHO cells carrying a CRE-luciferase reporter gene
T3 sequence (P48546 22-466): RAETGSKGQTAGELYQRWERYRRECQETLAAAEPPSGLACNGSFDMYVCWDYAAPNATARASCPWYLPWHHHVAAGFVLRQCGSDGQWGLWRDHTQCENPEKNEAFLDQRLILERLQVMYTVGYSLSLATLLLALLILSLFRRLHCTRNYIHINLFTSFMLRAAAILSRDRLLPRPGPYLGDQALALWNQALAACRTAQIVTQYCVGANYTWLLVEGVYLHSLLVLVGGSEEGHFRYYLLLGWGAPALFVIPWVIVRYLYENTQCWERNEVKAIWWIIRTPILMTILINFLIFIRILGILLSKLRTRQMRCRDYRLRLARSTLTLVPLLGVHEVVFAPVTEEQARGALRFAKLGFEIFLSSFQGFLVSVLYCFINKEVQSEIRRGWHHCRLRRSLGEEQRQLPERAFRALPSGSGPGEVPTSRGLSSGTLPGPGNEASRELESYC
Procedure, shortened: as §1

[1] = 0.5% human plasma, read-out: hGLP1R 0.5% hP
[2] = 100% human plasma, read-out: hGLP1R 100% hP
[3] = 0.5% human plasma, read-out: hNPY2R 0.5% hP
[4] = 100% human plasma, read-out: hNPY2R 100% hP
[5] = 0.5% human plasma, read-out: hGIPR 0.5% hP
[6] = 100% human plasma, read-out: hGIPR 100% hP

EC50 (hGLP1R; [1]) [nM]	EC50 (hGLP1R; [2]) [nM]	EC50 (hNPY2R; [3]) [nM]	EC50 (hNPY2R; [4]) [nM]	EC50 (hGIPR; [5]) [nM]	EC50 (hGIPR; [6]) [nM]	Substance
0.13	4.24	13.1	42.2	0.22	–	H-Y[Aib]EGTFTSDYSI[Aib]LEKQAQ[Aib]AFVQWLIK([εLys-γGlu-γGlu-γGlu-γGlu-γGlu-C18 diacid])GGPEEGASLRHYYNWLTRQRY-NH2 [Compound 143, Y-Aib-E-G-T-F-T-S-D-Y-S-I-Aib-L-E-K-Q-A-Q-Aib-A-F-V-Q-W-L-I-K(1,3)-GGPEEGASLRHYYNWLTRQRY-NH2.C18DA-gGlu-gGlu-gGlu-gGlu-gGlu-eLys(1,2)]
0.08	1.69	–	23.1	0.33	0.35	H-Y[Aib]EGTFTSDYSI[Aib]LEKQAQ[Aib]AFVQWLIK([εLys-γGlu-γGlu-γGlu-γGlu-γGlu-C18 diacid])GGPESGASLRHYYNWLTRQRY-NH2 [Compound 60, Y-Aib-E-G-T-F-T-S-D-Y-S-I-Aib-L-E-K-Q-A-Q-Aib-A-F-V-Q-W-L-I-K(1,3)-GGPESGASLRHYYNWLTRQRY-NH2.C18DA-gGlu-gGlu-gGlu-gGlu-gGlu-eLys(1,2)]
0.07	–	–	27.6	0.12	1.18	H-Y[Aib]EGTFTSDYSI[Aib]LEKQAQ[Aib]AFVQWLIK([εLys-γGlu-γGlu-γGlu-γGlu-γGlu-C18 diacid])GGPSEGASLRHYYNWLTRQRY-NH2 [Compound 267, Y-Aib-E-G-T-F-T-S-D-Y-S-I-Aib-L-E-K-Q-A-Q-Aib-A-F-V-Q-W-L-I-K(1,3)-GGPSEGASLRHYYNWLTRQRY-NH2.C18DA-gGlu-gGlu-gGlu-gGlu-gGlu-eLys(1,2)]
0.08	–	11	21	0.07	–	H-Y[Aib]EGTFTSDYSI[Aib]LEKQAQ[Aib]AFVQWLIK([εLys-γGlu-γGlu-γGlu-γGlu-γGlu-C18 diacid])GGPSEPASLRHYYNWLTRQRY-NH2 [Compound 148, Y-Aib-E-G-T-F-T-S-D-Y-S-I-Aib-L-E-K-Q-A-Q-Aib-A-F-V-Q-W-L-I-K(1,3)-GGPSEPASLRHYYNWLTRQRY-NH2.C18DA-gGlu-gGlu-gGlu-gGlu-gGlu-eLys(1,2)]
0.13	–	–	28.8	0.32	1.72	H-Y[Aib]EGTFTSDYSI[Aib]LEKQAQ[Aib]AFVQWLIK([εLys-γGlu-γGlu-γGlu-γGlu-γGlu-C20 diacid])GGPSEGASLRHYYNWLTRQRY-NH2 [Compound 242, Y-Aib-E-G-T-F-T-S-D-Y-S-I-Aib-L-E-K-Q-A-Q-Aib-A-F-V-Q-W-L-I-K(1,3)-GGPSEGASLRHYYNWLTRQRY-NH2.C20DA-gGlu-gGlu-gGlu-gGlu-gGlu-eLys(1,2)]
0.13	–	10.3	50.3	0.26	–	H-Y[Aib]EGTFTSDYSI[Aib]LEKQAQ[Aib]AFVQWLIK([εLys-γGlu-γGlu-γGlu-γGlu-γGlu-C20 diacid])GGPSEPASLRHYYNWLTRQRY-NH2 [Compound 169, Y-Aib-E-G-T-F-T-S-D-Y-S-I-Aib-L-E-K-Q-A-Q-Aib-A-F-V-Q-W-L-I-K(1,3)-GGPSEPASLRHYYNWLTRQRY-NH2.C20DA-gGlu-gGlu-gGlu-gGlu-gGlu-eLys(1,2)]
0.21	10.2	8.03	45.8	0.31	–	H-Y[Aib]EGTFTSDYSI[Aib]LEKQAQ[Aib]AFVQWLIK([εLys-γGlu-γGlu-γGlu-γGlu-γGlu-C20 diacid])GGPSEYASLRHYYNWLTRQRY-NH2 [Compound 189, Y-Aib-E-G-T-F-T-S-D-Y-S-I-Aib-L-E-K-Q-A-Q-Aib-A-F-V-Q-W-L-I-K(1,3)-GGPSEYASLRHYYNWLTRQRY-NH2.C20DA-gGlu-gGlu-gGlu-gGlu-gGlu-eLys(1,2)]
0.15	4.76	18.6	–	0.58	0.79	H-Y[Aib]EGTFTSDYSI[Aib]LEKQAQ[Aib]AFVQWLIK([εLys-γGlu-γGlu-γGlu-γGlu-γGlu-γGlu-C18 diacid])GGPEEGASLRHYYNWLTRQRY-NH2 [Compound 149, Y-Aib-E-G-T-F-T-S-D-Y-S-I-Aib-L-E-K-Q-A-Q-Aib-A-F-V-Q-W-L-I-K(1,3)-GGPEEGASLRHYYNWLTRQRY-NH2.C18DA-gGlu-gGlu-gGlu-gGlu-gGlu-gGlu-eLys(1,2)]
0.09	–	19.2	–	0.24	1.15	H-Y[Aib]EGTFTSDYSI[Aib]LEKQAQ[Aib]AFVQWLIK([εLys-γGlu-γGlu-γGlu-γGlu-γGlu-γGlu-C18 diacid])GGPSSGASLRHYYNWLTRQRY-NH2 [Compound 170, Y-Aib-E-G-T-F-T-S-D-Y-S-I-Aib-L-E-K-Q-A-Q-Aib-A-F-V-Q-W-L-I-K(1,3)-GGPSSGASLRHYYNWLTRQRY-NH2.C18DA-gGlu-gGlu-gGlu-gGlu-gGlu-gGlu-eLys(1,2)]
0.25	–	14.8	–	1.01	–	H-Y[Aib]EGTFTSDYSI[Aib]LEKQAQ[Aib]AFVQWLIK([εLys-γGlu-γGlu-γGlu-γGlu-γGlu-γGlu-C20 diacid])GGPEEGASLRHYYNWLTRQRY-NH2 [Compound 89, Y-Aib-E-G-T-F-T-S-D-Y-S-I-Aib-L-E-K-Q-A-Q-Aib-A-F-V-Q-W-L-I-K(1,3)-GGPEEGASLRHYYNWLTRQRY-NH2.C20DA-gGlu-gGlu-gGlu-gGlu-gGlu-gGlu-eLys(1,2)]
0.23	–	30.9	99.3	0.28	1.72	H-Y[Aib]EGTFTSDYSI[Aib]LEKQAQ[Aib]AFVQWLIK([εLys-γGlu-γGlu-γGlu-γGlu-γGlu-γGlu-C20 diacid])GGPSEGASLRHYYNWLTRQ[NMeR]Y-NH2 [Compound 125, Y-Aib-E-G-T-F-T-S-D-Y-S-I-Aib-L-E-K-Q-A-Q-Aib-A-F-V-Q-W-L-I-K(1,3)-G-G-P-S-E-G-A-S-L-R-H-Y-Y-N-W-L-T-R-Q-NMeR-Y-NH2.C20DA-gGlu-gGlu-gGlu-gGlu-gGlu-gGlu-eLys(1,2)]
0.11	–	> 99.9	–	0.11	0.77	H-Y[Aib]EGTFTSDYSI[Aib]LEKQAQ[Aib]AFVQWLIK([εLys-γGlu-γGlu-γGlu-γGlu-γGlu-γGlu-C20 diacid])GGPSEGASLRHYYNWLTR[β3hQ]RY-NH2 [Compound 186, Y-Aib-E-G-T-F-T-S-D-Y-S-I-Aib-L-E-K-Q-A-Q-Aib-A-F-V-Q-W-L-I-K(1,3)-G-G-P-S-E-G-A-S-L-R-H-Y-Y-N-W-L-T-R-bHGln-R-Y-NH2.C20DA-gGlu-gGlu-gGlu-gGlu-gGlu-gGlu-eLys(1,2)]
0.15	–	–	44.8	0.27	–	H-Y[Aib]EGTFTSDYSI[Aib]LEKQAQ[Aib]AFVQWLIK([εLys-γGlu-γGlu-γGlu-γGlu-γGlu-γGlu-C20 diacid])GGPSEGVSLRHYYNWLTRQRY-NH2 [Compound 114, Y-Aib-E-G-T-F-T-S-D-Y-S-I-Aib-L-E-K-Q-A-Q-Aib-A-F-V-Q-W-L-I-K(1,3)-GGPSEGVSLRHYYNWLTRQRY-NH2.C20DA-gGlu-gGlu-gGlu-gGlu-gGlu-gGlu-eLys(1,2)]
0.16	–	–	15.4	0.32	2.43	H-Y[Aib]EGTFTSDYSI[Aib]LEKQAQ[Aib]AFVQWLIK([εLys-γGlu-γGlu-γGlu-γGlu-γGlu-γGlu-C20 diacid])GGPSSYVSLRHYYNWLTRQRY-NH2 [Compound 15, Y-Aib-E-G-T-F-T-S-D-Y-S-I-Aib-L-E-K-Q-A-Q-Aib-A-F-V-Q-W-L-I-K(1,3)-GGPSSYVSLRHYYNWLTRQRY-NH2.C20DA-gGlu-gGlu-gGlu-gGlu-gGlu-gGlu-eLys(1,2)]
0.45	–	–	23	0.53	–	H-Y[Aib]EGTFTSDYSI[Aib]LEKQAQ[Aib]AFVQWLIK([εLys-γGlu-γGlu-γGlu-γGlu-γGlu-γGlu-C20 diacid])GGQRSYASLRHYYNWLTRQRY-NH2 [Compound 3, Y-Aib-E-G-T-F-T-S-D-Y-S-I-Aib-L-E-K-Q-A-Q-Aib-A-F-V-Q-W-L-I-K(1,3)-GGQRSYASLRHYYNWLTRQRY-NH2.C20DA-gGlu-gGlu-gGlu-gGlu-gGlu-gGlu-eLys(1,2)]
